Columns and labels:
[1] = test system: isolated rat heart infarction model; assay: Isolated rat heart infarction study after daily p.o. treatment; format: in vivo, Wistar rats; settings: for Infarct size, % of control: isolated rat heart, 60 min occlusion, 150 min reperfusion, mean ± s.e.m. of 9-10 animals; for decrease of infarct size: versus control
Experimental: Fifty male, 10 weeks old Wistar rats weighing 200-250 g were housed under standard conditions (21-23° C., 12 h light-dark cycle) with unlimited access to food (R3 diet, Lactamin AB, Sweden) and water.
Rats were adapted to local conditions for two weeks before the start of treatment. Meldonium dihydrate at a dose of 5 mg/kg or 100 mg/kg, gamma-butyrobetaine at a dose of 5 mg/kg and EG at doses of 20 mg/kg were administered p.o. daily for 8 weeks. Control rats received water.
Isolated Rat Heart Infarction Study The isolated rat heart experiment was performed essentially as described earlier (Liepinsh et al., J. Cardiovasc. Pharmacol. 2006; 48(6):314-9). Twenty-four hours after the last drug administration hearts were excised and retrogradely perfused via the aorta at a constant pressure with oxygenated Krebs-Henseleit buffer at 37° C. The heart rate, left ventricle end-diastolic pressure and left ventricle developed pressure were continuously recorded. Coronary flow was measured using an ultrasound flow detector (HSE) and the PowerLab 8/30 system from ADInstruments. The hearts were perfused for 20 min to stabilize the hemodynamic functions and then occlusion was performed for 60 min by constricting threads through a plastic tube. Successful occlusion was confirmed by a coronary flow decrease of about 40 percent. Reperfusion was achieved by releasing the threads. At the end of the 150-min reperfusion period, the risk zone was delineated with 0.1% methylene blue. The hearts were then sectioned transversely from the apex to the base in five slices 2 mm in thickness and incubated in 1% triphenyltetrazolium chloride in phosphate buffer (pH 7.4, 37° C.) for 10 min to stain viable tissue red and necrotic tissue white. Computerized planemetric analysis of Sony A900 photographs was performed using Image-Pro Plus 6.3 software to determine the area at risk and area of necrosis expressed as a % of the left ventricle. The obtained values were then used to calculate the infarct size (IS) as a % of risk area according to the formula: Infarct Size=Area of Necrosis/Area at Risk×100%.
The anti-infarction effect of examined substances was investigated in an isolated rat heart infarction model. During occlusion of left coronary artery, the coronary flow in all experimental groups was decreased for 40% (from 11 ml/min 30 to 7 ml/min). Moreover, the drop of developed left ventricular pressure for 50% was observed. […] In reperfusion stage, coronary flow, developed left ventricular pressure, ±dp/dt values were recovered till about 80% of control level. There were no significant differences between control and treatment groups.
Effects of Meldonium dihydrate (5 mg/kg un 100 mg/kg), gamma-butyrobetaine (5 mg/kg) and 4-[ethyl(dimethyl)ammonio]butanoate (EG) (5 mg/kg) after […] of treatment on infarct size in the isolated rat heart infarction experiment are presented in Table 1.

[2] = s.c.; cited from earlier work

Structure (SMILES)	Infarct size, % of control ([1]; 5 mg/kg p.o. daily)	decrease of infarct size ([1]; dose of 5 mg/kg)	therapeutical effect on infarct size ([1]; dose of 5 mg/kg)	LD50 [2]	Infarct size, % of control ([1]; 100 mg/kg p.o. daily)	decrease of infarct size ([1]; 100 mg/kg)
CC[N+](C)(C)CCCC(=O)[O-] [EG, 4-[ethyl(dimethyl)ammonio]butanoate]	59 ± 6 % of control	41%				
C[N+](C)(C)CCCC(=O)[O-] [Gamma-butyrobetaine]	90 ± 5 % of control		no therapeutical effect	> 7000 mg/kg		
C[N+](C)(C)NCCC(=O)[O-] [Meldonium dihydrate, 3-(2,2,2-Trimethylhydrazinium)propionate dihydrate]	95 ± 9 % of control	5%			76 ± 10 % of control	24%
